The nature of data set [1]: Apparent passive permeability in human Caco2 cells. It is filed as ADME, cell-based. Particulars: Caco-2.
Data set [2] is described as follows: Tmax in cynomolgus monkey at 1 mg/kg, po administered as single dose by LC-MS/MS analysis. It is filed as ADME, organism-based, Macaca fascicularis. The settings on record: in vivo.
Data set [3] can be described thus: Solubility of the compound. Format: physicochemical.
Data set [4] deals with Cynomolgus monkey. Briefly: Time at which maximum plasma concentration stays above in vitro human CYP11B2 IC50 in cynomolgus monkey at 3 mg/kg, po administered as single dose by LC-MS/MS analysis. It is filed as ADME, organism-based, Macaca fascicularis. Particulars: in vivo.
Data set [5] has as its system Cynomolgus monkey. Briefly: Time at which maximum plasma concentration stays below in vitro human CYP11B2 IC50 in cynomolgus monkey at 3 mg/kg, po administered as single dose by LC-MS/MS analysis. It is filed as ADME, organism-based, Macaca fascicularis. The settings on record: in vivo.

What is called Papp is a coefficient for how fast a substance crosses the barrier. Broadly, the Tmax is the time from dosing to the highest level.

`Cc1cc(C#N)ccc1-c1cnn2c1C[C@@H](Oc1ncc(F)cn1)C2`: in data set [1], the Papp was 62.3 ×10⁻⁶ cm/s. The Tmax in data set [2] worked out at 4 h.
Consider `Cc1cc(C#N)ccc1-c1cnn2c1C[C@@H](O)C2`, for which the Papp in data set [1] was found to be 68.4 ×10⁻⁶ cm/s. For the same compound, the solubility entry in data set [3] is listed as “Soluble”. Further, the Time with Cynomolgus monkey [4] worked out at 8 h; in the data set on Cynomolgus monkey [5], 24 h.

(Values after ChEMBL document CHEMBL4118250, “Discovery of Novel Pyrazole-Based Selective Aldosterone Synthase (CYP11B2) Inhibitors: A New Template to Coordinate the Heme-Iron Motif of CYP11B2” (J Med Chem, 2018).)
